Several values for one entry are separate records, joined by “and”; a condition that tells them apart may be missing. Identical values can stand only once. Entries after “also recorded” stand apart in the source; their conditions may differ.
Experiments:
[1] = target: β1 receptor (Homo sapiens, UniProt P08588); assay: β1 cAMP assay (DiscoveRx); assay type: cell-based; details: potentiator, agonist and antagonist mode, up to 10 µM
Procedure: (§1) The D2, β1, β2, β3, and 5HT6 cAMP assays were performed at DiscoveRx using the protocols described on their website (www.discoverx.com).

[2] = target: T1, rhesus monkey D1 receptor (Macaca mulatta, UniProt O77680); assay: cAMP potentiation, transiently expressed rhesus monkey D1 receptor in HEK293 cells; assay type: cell-based; details: Rhesus D1, transient
T1 construct: expressed in transfected cells; host or cells: HEK293, transient (Fugene HD)

[3] = test system: hD1 mice; set-up: method as in Bruns et al., submitted for publication; details: reserpine pretreatment; ref Bruns et al., submitted for publication; cited from earlier work
[4] = test system: wild-type C57Bl/6 mice; assay: Locomotor activity (LMA) in wild-type C57Bl/6 mice; assay type: in vivo, mouse
[5] = test system: 10 additional targets from the standard Lilly selectivity panel; assay: Standard Lilly selectivity panel, additional targets
[6] = target: T2, rat D1 receptor (Rattus norvegicus, UniProt P18901); assay: cAMP response in rD1 HEK293 cells; assay type: cell-based
T2 construct: expressed in transfected cells

[7] = target: 5HT6 receptor (Homo sapiens, UniProt P50406); assay: 5HT6 cAMP assay (DiscoveRx); assay type: cell-based; details: potentiator, agonist and antagonist mode, up to 10 µM
Procedure: as §1

[8] = Free (unbound) brain concentrations of DETQ in hD1 mice; assay type: in vivo, mouse
Procedure: Immediately after the LMA measurements described in Fig. 8, the brains were removed, and brain homogenate concentrations were determined by liquid chromatography with tandem mass spectrometry. The unbound fraction in brain was determined by equilibrium dialysis in a mouse brain homogenate mixture after incubation of the compound for 4.5 hours ([Kalvass et al., 2007]).
The unbound brain concentrations were calculated from the following equation: […]

[9] = target: dog D1 receptor (Canis lupus familiaris, UniProt A0A8I3RQT9); assay: cAMP potentiation, transiently expressed dog D1 receptor in HEK293 cells; assay type: cell-based; details: Dog D1, transient
Procedure: The human, rhesus monkey, dog, or mouse D1 receptor was cloned into the Jump-In vector system (Life Technologies, Austin, TX) and transiently transfected into HEK293 cells using Fugene HD (Promega, Madison, WI). After 2 days of growth in DMEM medium containing 10% FBS, 10 mM HEPES, and 100 µg/ml ampicillin at 37°C in 5% CO2, the cells were harvested with TrypLE Express (GIBCO), resuspended in FBS containing 8% DMSO, and stored in 1-ml aliquots (10 × 10^6 cells/ml) at −70°C. The cAMP accumulation was measured as described for hD1 except that 6000 to 10,000 cells per well were used and the EC20 concentration of dopamine used was 0.7 nM (final).

[10] = test system: hD1 mice; assay: Video-tracking of horizontal motion, rearing and grooming in hD1 mice; assay type: in vivo, mouse
Description: The apparatus for the video-tracking assessment experiment included 12 custom-built video-tracking observation chambers and the HomeCageScan (CleverSys, Reston, VA) software system. The chambers, measuring (in inches) 8 width × 10 length × 8 height, consisted of two end walls, a back wall, a top, and a floor constructed of ¼-in. translucent white acrylic, and one side (front) constructed of clear acrylic. LED strip lighting was placed below the chamber for illumination. A color video camera (640 × 480, 30 frames per second) was placed in front of each chamber to record behavior from a side view. The chambers were located in large sound-attenuating chambers to reduce ambient room noise and isolate lighting. The cameras were connected in groups of four to a quad multiplexer (model NVQC-42N; Nuvico, Englewood, NJ), with each multiplexer connected to its own computer, which then recorded each session to an MPEG file.
At the end of the experiment the files were batch-analyzed by a computer running the CleverSys CageScan video-tracking software. This software can recognize and quantify several different behaviors, including LMA, grooming, rearing, immobility, and feeding behaviors. The current experiment examined behavior in a novel open-field environment rather than home-cage activity, which limited behaviors of interest to LMA, grooming, and rearing.
For HomeCageScan behavioral phenotyping, male D1 knock-in mice (8–12 weeks, 20–25 g body weight) were placed into the observation chambers for a 60-minute habituation session. […] All behavioral activity was monitored and scored by the HomeCageScan system.

[11] = target: β2 receptor (Homo sapiens, UniProt P07550); assay: β2 cAMP assay (DiscoveRx); assay type: cell-based; details: potentiator, agonist and antagonist mode, up to 10 µM
Procedure: as §1

[12] = target: T3, mouse D1 receptor (Mus musculus, UniProt Q61616); assay: cAMP potentiation, transiently expressed mouse D1 receptor in HEK293 cells; assay type: cell-based
T3 construct: expressed in transfected cells; host or cells: HEK293, transient (Fugene HD)

[13] = target: T4, human D5 receptor (Homo sapiens, UniProt P21918); assay: cAMP response in hD5 CHO cells; assay type: cell-based
T4 construct: host or cells: CHO
Procedure: A Chinese hamster ovary (CHO) cell line expressing the human D5 receptor was purchased from DiscoveRx (Fremont, CA) (product no. 92-1043). The hD5 assay was performed in the same way as the hD1 assay except that the EC20 concentration of dopamine was 2 nM.

[14] = target: T5, human D1 receptor (Homo sapiens, UniProt P21728); assay: cAMP potentiation, transiently expressed human D1 receptor in HEK293 cells; assay type: cell-based; details: Human D1, transient
[15] = target: D2 receptor (Homo sapiens, UniProt P14416); assay: D2 cAMP assay (DiscoveRx); assay type: cell-based; details: potentiator, agonist and antagonist mode, up to 10 µM
Procedure: as §1

[16] = target: T5, human D1 receptor; assay: cAMP response in HEK293 cells stably expressing the human D1 receptor; assay type: cell-based; details: for EC50: hD1 HEK293
[17] = target: β3 receptor (Homo sapiens, UniProt P13945); assay: β3 cAMP assay (DiscoveRx); assay type: cell-based; details: potentiator, agonist and antagonist mode, up to 10 µM
Procedure: as §1

[18] = target: T5, human D1 receptor; assay: D1 receptor internalization (PathHunter, DiscoveRx)
[19] = with EC20 dopamine, 0% = EC20 dopamine response, 100% = maximum dopamine response

T2 sequence (P18901 whole entry): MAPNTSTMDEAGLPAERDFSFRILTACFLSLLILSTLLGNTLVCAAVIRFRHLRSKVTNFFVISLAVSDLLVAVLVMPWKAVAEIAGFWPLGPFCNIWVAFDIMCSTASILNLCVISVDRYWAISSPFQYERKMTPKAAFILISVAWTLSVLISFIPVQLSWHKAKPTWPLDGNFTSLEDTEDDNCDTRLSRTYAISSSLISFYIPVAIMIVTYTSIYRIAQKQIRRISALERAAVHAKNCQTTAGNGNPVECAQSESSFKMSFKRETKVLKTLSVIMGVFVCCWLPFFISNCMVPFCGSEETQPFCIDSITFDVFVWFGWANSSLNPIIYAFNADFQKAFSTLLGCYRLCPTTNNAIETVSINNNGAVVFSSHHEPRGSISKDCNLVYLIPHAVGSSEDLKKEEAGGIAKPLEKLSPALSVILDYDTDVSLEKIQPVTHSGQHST
T3 sequence (Q61616 whole entry): as the sequence (P18901 whole entry) above, with A11T, A15V, L91F, P93S, T181A, A245T, A254S, V370M, K403R, A410P counted along it
T5 sequence (P21728 whole entry): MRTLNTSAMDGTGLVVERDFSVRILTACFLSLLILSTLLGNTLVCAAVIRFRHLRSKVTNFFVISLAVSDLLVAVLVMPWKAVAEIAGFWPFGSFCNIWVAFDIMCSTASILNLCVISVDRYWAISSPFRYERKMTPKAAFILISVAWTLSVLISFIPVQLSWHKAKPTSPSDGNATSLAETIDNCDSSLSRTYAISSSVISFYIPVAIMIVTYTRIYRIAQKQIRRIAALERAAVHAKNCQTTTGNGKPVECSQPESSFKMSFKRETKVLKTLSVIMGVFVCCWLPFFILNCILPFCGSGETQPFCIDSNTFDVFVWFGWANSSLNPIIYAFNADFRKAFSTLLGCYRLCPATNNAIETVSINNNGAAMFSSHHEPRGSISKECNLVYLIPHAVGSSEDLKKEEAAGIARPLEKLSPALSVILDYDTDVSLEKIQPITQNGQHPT
T1 sequence (O77680 whole entry): as the sequence (P21728 whole entry) above, with N311I counted along it
T4 sequence (P21918 whole entry): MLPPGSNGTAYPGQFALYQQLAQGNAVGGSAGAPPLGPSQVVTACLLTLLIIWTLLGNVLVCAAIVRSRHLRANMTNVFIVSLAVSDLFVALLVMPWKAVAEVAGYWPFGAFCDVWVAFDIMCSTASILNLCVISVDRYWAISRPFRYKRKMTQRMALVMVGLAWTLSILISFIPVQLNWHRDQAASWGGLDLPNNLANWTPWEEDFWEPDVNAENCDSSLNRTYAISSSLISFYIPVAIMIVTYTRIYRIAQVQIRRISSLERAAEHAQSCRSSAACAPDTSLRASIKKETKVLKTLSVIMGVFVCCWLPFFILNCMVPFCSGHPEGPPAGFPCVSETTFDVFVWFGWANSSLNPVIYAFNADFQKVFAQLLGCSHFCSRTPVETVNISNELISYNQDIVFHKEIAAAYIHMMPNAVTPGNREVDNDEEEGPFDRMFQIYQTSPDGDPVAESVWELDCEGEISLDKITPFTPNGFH
Sequence of dog D1 receptor (A0A8I3RQT9 1-446): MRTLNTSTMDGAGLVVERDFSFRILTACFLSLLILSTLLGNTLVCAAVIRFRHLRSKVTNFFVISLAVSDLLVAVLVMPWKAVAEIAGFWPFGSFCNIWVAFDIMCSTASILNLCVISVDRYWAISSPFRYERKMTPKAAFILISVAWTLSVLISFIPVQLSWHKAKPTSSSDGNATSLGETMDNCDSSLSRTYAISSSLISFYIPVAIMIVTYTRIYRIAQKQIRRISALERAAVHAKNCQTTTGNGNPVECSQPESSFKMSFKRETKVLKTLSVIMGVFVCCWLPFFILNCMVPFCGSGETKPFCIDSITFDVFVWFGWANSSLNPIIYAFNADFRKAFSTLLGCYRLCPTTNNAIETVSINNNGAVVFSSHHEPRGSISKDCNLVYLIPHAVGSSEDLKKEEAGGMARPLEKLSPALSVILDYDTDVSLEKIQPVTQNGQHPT
Sequence of β2 receptor (P07550 whole entry): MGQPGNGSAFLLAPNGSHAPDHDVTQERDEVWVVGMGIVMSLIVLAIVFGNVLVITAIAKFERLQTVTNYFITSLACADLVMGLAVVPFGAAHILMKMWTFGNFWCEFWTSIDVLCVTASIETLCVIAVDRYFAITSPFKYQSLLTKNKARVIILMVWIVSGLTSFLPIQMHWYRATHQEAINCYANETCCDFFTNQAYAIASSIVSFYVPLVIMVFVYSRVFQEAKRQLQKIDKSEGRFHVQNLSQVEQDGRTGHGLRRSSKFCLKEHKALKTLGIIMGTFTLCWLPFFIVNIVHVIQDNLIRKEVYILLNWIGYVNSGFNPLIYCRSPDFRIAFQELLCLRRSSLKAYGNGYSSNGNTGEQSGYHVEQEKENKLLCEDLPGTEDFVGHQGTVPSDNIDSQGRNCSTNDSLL
Sequence of 5HT6 receptor (P50406 whole entry): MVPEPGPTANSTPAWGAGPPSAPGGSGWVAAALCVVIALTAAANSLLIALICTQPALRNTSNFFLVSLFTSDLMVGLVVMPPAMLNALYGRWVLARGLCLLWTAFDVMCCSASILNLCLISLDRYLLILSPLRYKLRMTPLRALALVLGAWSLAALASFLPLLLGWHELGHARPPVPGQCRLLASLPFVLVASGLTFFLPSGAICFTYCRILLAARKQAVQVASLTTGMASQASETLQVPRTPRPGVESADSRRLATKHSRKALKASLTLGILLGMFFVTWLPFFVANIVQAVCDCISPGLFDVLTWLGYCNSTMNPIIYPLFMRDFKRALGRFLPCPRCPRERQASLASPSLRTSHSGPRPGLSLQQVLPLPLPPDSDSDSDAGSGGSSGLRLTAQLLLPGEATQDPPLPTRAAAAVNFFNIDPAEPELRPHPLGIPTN
Sequence of β3 receptor (P13945 whole entry): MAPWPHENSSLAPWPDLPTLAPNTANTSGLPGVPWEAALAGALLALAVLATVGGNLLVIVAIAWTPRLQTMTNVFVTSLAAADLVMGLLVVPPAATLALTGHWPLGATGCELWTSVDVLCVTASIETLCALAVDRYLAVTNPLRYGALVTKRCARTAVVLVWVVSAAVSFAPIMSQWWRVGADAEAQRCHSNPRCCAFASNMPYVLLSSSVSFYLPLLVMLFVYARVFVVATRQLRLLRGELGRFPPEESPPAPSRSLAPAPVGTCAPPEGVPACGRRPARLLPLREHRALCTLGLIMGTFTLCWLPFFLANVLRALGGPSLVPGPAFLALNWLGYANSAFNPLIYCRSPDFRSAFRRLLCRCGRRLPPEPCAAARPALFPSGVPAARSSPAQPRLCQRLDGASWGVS
Sequence of β1 receptor (P08588 whole entry): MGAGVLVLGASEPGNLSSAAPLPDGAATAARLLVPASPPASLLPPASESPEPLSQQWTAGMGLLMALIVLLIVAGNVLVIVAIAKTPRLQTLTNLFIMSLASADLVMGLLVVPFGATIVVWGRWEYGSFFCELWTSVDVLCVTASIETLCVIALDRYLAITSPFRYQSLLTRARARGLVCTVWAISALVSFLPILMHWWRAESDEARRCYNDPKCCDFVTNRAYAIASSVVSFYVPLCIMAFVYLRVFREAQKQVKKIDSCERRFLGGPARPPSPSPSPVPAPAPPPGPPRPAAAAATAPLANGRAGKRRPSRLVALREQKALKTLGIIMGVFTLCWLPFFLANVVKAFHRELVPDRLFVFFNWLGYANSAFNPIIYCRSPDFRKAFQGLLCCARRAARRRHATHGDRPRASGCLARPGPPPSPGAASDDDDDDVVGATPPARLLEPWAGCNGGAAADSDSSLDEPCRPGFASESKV
Sequence of D2 receptor (P14416 whole entry): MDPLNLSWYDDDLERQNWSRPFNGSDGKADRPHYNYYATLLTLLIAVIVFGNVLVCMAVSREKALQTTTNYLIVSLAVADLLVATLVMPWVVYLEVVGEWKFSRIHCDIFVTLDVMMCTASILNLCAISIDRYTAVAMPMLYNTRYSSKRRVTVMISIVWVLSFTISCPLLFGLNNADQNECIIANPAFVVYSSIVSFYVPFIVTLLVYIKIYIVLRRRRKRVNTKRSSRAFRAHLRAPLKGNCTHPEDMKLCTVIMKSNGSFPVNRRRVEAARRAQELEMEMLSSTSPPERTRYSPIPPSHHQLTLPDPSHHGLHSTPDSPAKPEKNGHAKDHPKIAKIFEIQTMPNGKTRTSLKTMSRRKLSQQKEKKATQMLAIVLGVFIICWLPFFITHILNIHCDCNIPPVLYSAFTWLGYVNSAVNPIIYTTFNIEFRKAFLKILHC

C[C@H]1c2cccc(C(C)(C)O)c2C[C@H](CO)N1C(=O)Cc1c(Cl)cccc1Cl [DETQ, 2-(2,6-dichlorophenyl)-1-((1S,3R)-3-(hydroxymethyl)-5-(2-hydroxypropan-2-yl)-1-methyl-3,4-dihydroisoquinolin-2(1H)-yl)ethan-1-one]
Activity at β1 receptor [1]: inactive | Top (%) [2]: 80.0% | EC50 ([2]; 0.7 nM dopamine): 12 nM | Response in hD1 mice depleted of dopamine by reserpine [3]: did not reverse hypokinesia; also recorded: absent | LMA activity in wild-type mice ([4]; 3–20 mg/kg orally): inactive in wild-type mice | Increase in LMA ([4]; wild-type C57Bl/6 mice, 30 mg/kg oral, P = 0.07, not significant): 32% | Activity at 10 additional targets of the Lilly selectivity panel [5]: inactive | Loss of functional affinity/potency at rat D1 versus human D1 [6]: ~30 fold and 28 fold | Emax ([6]; HEK293, rat D1, read-out: Maximum response relative to that of dopamine): 39.9% | EC50 ([6]; rat D1, 5 nM dopamine (EC20), n = 4, read-out: EC50, cAMP potentiation): 162 ± 18 nM | Activity at 5HT6 receptor [7]: inactive | Free brain levels after oral dosing ([8]; 240 mg/kg oral, immediately after LMA testing): ~600 nM | concentration at 6 h ([8]; hD1 knock-in, mouse, brain (unbound), 240 mg/kg oral twice daily, at 6 hours, n = 3, read-out: Unbound brain levels): 19.8 ± 1.5 nM | concentration at 12 h ([8]; hD1 knock-in, mouse, brain (unbound), 240 mg/kg oral twice daily, at 12 hours, n = 3, read-out: Unbound brain levels): 30.8 ± 9.4 nM | Top (%) [9]: 85.2% | EC50 ([9]; 0.7 nM dopamine): 8.6 nM | Grooming (index of stereotyped behavior) [10]: only modest changes that did not reach statistical significance | Horizontal locomotion and rearing [10]: this increase was maintained up to the highest dose tested | Activity at β2 receptor [11]: inactive | Loss of potency/affinity at mouse D1 versus human D1 [12]: ~30 fold | Top (%) ([12]; Mouse D1, transient): 50.0% | EC50 ([12]; Mouse D1, transient, 0.7 nM dopamine): 312 nM | Selectivity for the D1 receptor over D5 [13]: > 1000 fold | Activity at human D5 receptor ([13]; potentiator mode, up to 25 µM): inactive | Top (%) [14]: 75.6% | EC50 ([14]; 0.7 nM dopamine): 11.4 nM | Activity at D2 receptor [15]: inactive | Relative potency (potentiator mode RA divided by agonist mode RA) [16]: 43 fold and 42.8 fold | Maximum overall sensitization to dopamine (α times β) ([16]; 20.8 × 1.22): 25.4 fold | Emax ([16]; HEK293, human D1, comparison with rat D1, read-out: Maximum response relative to that of dopamine): 98.6% | Rightward shift of EC50 in the absence of dopamine ([16]; agonist vs potentiator mode): 6 fold | α-factor (maximum leftward shift of the cAMP response to dopamine) ([16]; allosteric Schild plot): 21 fold and 20.8 fold and 20.8 ± 1.9 fold | Kb ([16]; dopamine curve-shift, cAMP, read-out: KB (allosteric Schild plot)): 26 nM | EC50 ([16]; in the presence of an EC20 concentration of dopamine (12 nM), read-out: EC50, cAMP, potentiator mode): 5.8 nM and 5.83 nM | Top, cAMP, potentiator mode ([16]; with 12 nM dopamine, % of window between EC20 dopamine and maximum dopamine response): 95.2% | RA, cAMP agonist mode ([16]; without dopamine): 0.38 | Top, cAMP, agonist mode ([16]; without dopamine, % of maximum response to dopamine): 11.6% | EC50 ([16]; without dopamine, read-out: EC50, cAMP, agonist mode): 30.4 nM | Activity at β3 receptor [17]: inactive | Pathway Preference cAMP/Internalization ([18]; RA for cAMP divided by RA for internalization): 13.1 | Relative Preference DETQ/A-77636 ([18]; pathway preference of DETQ divided by that of A-77636): 2.0 ± 1.4 and 1.97 | RA, Internalization ([18]; top divided by EC50, with 407 nM dopamine): 1.25 | Bottom, D1 receptor internalization [18, 19]: 5.0% | Top, D1 receptor internalization [18, 19]: 55.8%
